Columns and labels:
CD11b = experiment: Immunohistochemical staining of macrophages (CD11b) in atherosclerotic lesions; type: in vivo, mice; conditions: 30 mg/kg/d orally for 35 days, mean ± SD, N=8/group
Protocol: (§1) Administration of Compound. Compound of formula I, preferably (3S, 4R)-7-(2-carboxy-5-trifluoromethylphenyl)-4-hydroxy-3-benzyl-3,4-dihydro-2H-1-benzopyran, was evaluated for its effects on lesion development in age-matched groups of mice (15 to 30 weeks of age at time of sacrifice) using a 35 day treatment protocol. Subgroups of mice were treated with (3S, 4R)-7-(2-carboxy-5-trifluoromethylphenyl)-4-hydroxy-3-benzyl-3,4-dihydro-2H-1-benzopyran for shorter times (7-14 days) for evaluation of acute changes in tissue gene expression as noted in the table and figure legends. In all study groups, the compound was administered by oral gavage once daily in a vehicle comprised of 0.6% Tween 80 + 0.25% methylcellulose in PBS. Mice received either vehicle alone, 30mg/kg/day, or 100mg/kg/day of compound of formula I.
Immunohistochemical Staining of Macrophages. Serial paraformaldehyde fixed, OCT embedded sections of aortic valves were immunostained for macrophages using rat monoclonal antibodies (IgG2b) against MOMA-2 (BioSource) and CD11b (Pharmingen). Endogenous biotin and peroxidase activity were blocked by incubating each section with an avidin/biotin solution (Vector Laboratories), and 0.3% H2O2 in 1% bovine serum, respectively. […] Results are expressed as the percent of the total cross-sectional vessel wall area (normal + diseased area/ section, excluding the lumen) stained with DAB. […]

C57E^-/- = experiment: Lesion analysis (Oil red O, aortic sinus and valve) in atherosclerotic mice; type: in vivo; conditions: 100 mg/kg orally 35 days, chow diet, mean ±SD
Description: (§2) Mouse line derivation. Genetically modified apolipoprotein E-deficient (ApoE^-/-), low density lipoprotein (LDL) receptor-deficient (LDLr^-/-), and monocyte chemoattractant protein-1-deficient (MCP-1^-/-) mice used in the present study have been previously described and characterized [See Rutledge, B.J. et. al., J. Immunol., 1995;155:4838-4843; and Nakashima Y, et. al., Arterioscler. Thromb., 1994;14(1):133-140]. To obtain mice homozygous for both the apoE and MCP-1 (ScyA2) null alleles, male ApoE^-/- mice on a C57B/6 background (C57E^- ^/-) were mated with heterozygous female MCP-1^-/+ mice on a C57B/6 background. The resulting ApoE^-/- x MCP-1^-/+ progeny were identified by Southern blot analysis and inbred to produce ApoE^-/- x MCP-1^-/- (C57E^-/- x MCP-1 ^-/-) and control ApoE ^-/- x MCP-1^+/+ (C57E-/-) mice. ApoE^-/- mice on the mixed genetic background 1290la x C57B/6 (129E^-/-) were bred in-house and derived from brother and sister matings. All mice were weaned at 21 days, maintained on a 12 hour light/dark cycle and fed either a chow or a Western-type diet [See, Bourassa, P.K., et. al., Proc Natl Acad. Sci. USA, 1996;93:10022-10027].
Administration of Compound. Compound of formula I, preferably (3S, 4R)-7-(2-carboxy-5-trifluoromethylphenyl)-4-hydroxy-3-benzyl-3,4-dihydro-2H-1-benzopyran, was evaluated for its effects on lesion development in age-matched groups of mice (15 to 30 weeks of age at time of sacrifice) using a 35 day treatment protocol. Subgroups of mice were treated with (3S, 4R)-7-(2-carboxy-5-trifluoromethylphenyl)-4-hydroxy-3-benzyl-3,4-dihydro-2H-1-benzopyran for shorter times (7-14 days) for evaluation of acute changes in tissue gene expression as noted in the table and figure legends. […]
Lesion Analysis. […] Each section of the aortic valve was evaluated for Oil red O staining area by capturing images directly from a RGB camera attached to a Leitz Laborlux S (Leica) light microscope for display on a Trinitron RGB monitor. […] Results are expressed as the average lesion size per section or as the percent of the total cross sectional vessel wall stained with Oil red O. For each animal, the average lesion area of 12-16 sections was determined and data are expressed as lesion size or mean percent lesion area ±S.D.
Referring to Table 2, Apolipoprotein E-deficient mice on a mixed 129Io/B6 (129E^-/-) or a C57BI/6 background (C57E^-/-), mice homozygous low density lipoprotein receptor deficient mice LDLR^-/- mice were treated for 35 days orally with (3S, 4R)-7-(2-carboxy-5-trifluoromethylphenyl)-4-hydroxy-3-benzyl-2H-1-benzopyran) at doses indicated. […] The mean percent lesion area in 10 µ sections of the aortic sinus and valve region was calculated following oil red O staining, Values are reported as means ±SD. The term "ND" is defined as Not Determined. […]

MCP-1 ^-/- X ApoE^-/- = experiment: Lesion analysis (Oil red O, aortic sinus and valve) in MCP-1 deficient mice; type: in vivo; conditions: M, mean ±SD
Description: as §2, §1
(§3) Lesion Analysis. To determine cross-sectional lesion area, hearts were perfusion-fixed in 4% paraformaldehyde, infiltrated with 30% gum sucrose for 24 hours at 4°C, and embedded in OCT compound and sectioned 10µm, -18°C, as previously described [See Borgeat P., et.al., J. Biol. Chem., 1979;254:2643-2646] and the sections were stained with Oil red O (Polyscientific, Bay Shore NY) and counterstained with Gill III hematoxylin (Sigma, St. Louis MO). Each section of the aortic valve was evaluated for Oil red O staining area by capturing images directly from a RGB camera attached to a Leitz Laborlux S (Leica) light microscope for display on a Trinitron RGB monitor. Image analysis was performed using ImagePro 3.1' software as described previously [See Bourassa, P.K., et. al., Proc Natl. Acad. Sci. USA, 1996;93:10022-10027]. Results are expressed as the average lesion size per section or as the percent of the total cross sectional vessel wall stained with Oil red O. For each animal, the average lesion area of 12-16 sections was determined and data are expressed as lesion size or mean percent lesion area ±S.D.
Referring to Table 4, mice homozygous for the null alleles of Monocyte chemoattractant protein-1 (MCP-1^-/-) and apolipoprotein E (ApoE^-/-) (MCP-1 ^-/- X ApoE^-/-) on a C57bl/6 background (C57E^-/-) mice were treated for 35 days orally with (3S, 4R)-7-(2-carboxy-5-trifluoromethylphenyl)-4-hydroxy-3-benzyl-2H-1-benzopyran) at doses indicated 0, 30 or 100mg/kg. The mean percent lesion area in 10 µ sections of the aortic sinus and valve region was calculated following oil red O staining, Values are reported as means ±SD. The term "ND" is defined as Not Determined. The term "TPC" is defined as Total Plasma Cholesterol. The term "TG" is defined as Triglycerides. The term "sinus" is defined as a region of the aortic valve; moving up from the base of the heart; which begins at the first appearance of the aortic valve cusps, dividing the lumen into three distinct regions. […]

[1] = Body weight of treated mice; type: in vivo
Protocol: as §1, with “Mice received either vehicle alone, 30mg/kg/day, or 100mg/kg/day of compound of formula I.” left out

129E^-/- = experiment: Lesion analysis (Oil red O, aortic sinus and valve) in atherosclerotic mice; type: in vivo; parameters: Lesion size: unit not given here; conditions: chow diet; for Sinus (% lesion) / Valve (%lesion): 129E^-/-, F, mean ±SD
Description: as §2
as §1, with “Mice received either vehicle alone, 30mg/kg/day, or 100mg/kg/day of compound of formula I.” left out
as §3
Referring to Table 2, Apolipoprotein E-deficient mice on a mixed 129Io/B6 (129E^-/-) or a C57BI/6 background (C57E^-/-), mice homozygous low density lipoprotein receptor deficient mice LDLR^-/- mice were treated for 35 days orally with (3S, 4R)-7-(2-carboxy-5-trifluoromethylphenyl)-4-hydroxy-3-benzyl-2H-1-benzopyran) at doses indicated. LDLR^-/- was fed a Western diet; all other strains were maintained on chow diet. The mean percent lesion area in 10 µ sections of the aortic sinus and valve region was calculated following oil red O staining, Values are reported as means ±SD. The term "ND" is defined as Not Determined. The term "TPC" is defined as Total Plasma Cholesterol. The term "TG" is defined as Triglycerides. The term "sinus" is defined as a region of the aortic válve; moving up from the base of the heart; which begins at the first appearance of the aortic valve cusps, dividing the lumen into three distinct regions. In the sinus, the aortic wall is bulging and irregular. […]

LDLr^-/- = experiment: as above; type: in vivo; parameters: Lesion size: unit not given here
Description: as §2
Administration of Compound. Compound of formula I, preferably (3S, 4R)-7-(2-carboxy-5-trifluoromethylphenyl)-4-hydroxy-3-benzyl-3,4-dihydro-2H-1-benzopyran, was evaluated for its effects on lesion development in age-matched groups of mice (15 to 30 weeks of age at time of sacrifice) using a 35 day treatment protocol. […]
Lesion Analysis. […] Each section of the aortic valve was evaluated for Oil red O staining area by capturing images directly from a RGB camera attached to a Leitz Laborlux S (Leica) light microscope for display on a Trinitron RGB monitor. […] Results are expressed as the average lesion size per section or as the percent of the total cross sectional vessel wall stained with Oil red O. For each animal, the average lesion area of 12-16 sections was determined and data are expressed as lesion size or mean percent lesion area ±S.D. […]

[2] = 15 wks, 30 mg/kg orally 35 days
[3] = 15 wks, 100 mg/kg orally 35 days
[4] = 30 wks, 30 mg/kg orally 35 days
[5] = 30 wks, 100 mg/kg orally 35 days
[6] = 15 wks, 50 mg/kg orally 35 days
[7] = 20 wks, 30 mg/kg orally 35 days
[8] = 24 wks, 100 mg/kg orally 35 days
[9] = LDLr^-/-, M, 18 wks, 30 mg/kg orally 35 days, Western diet, mean ±SD

## O=C(O)c1ccc(C(F)(F)F)cc1-c1ccc2c(c1)OC[C@H](Cc1ccccc1)[C@H]2O [(3S, 4R)-7-(2-carboxy-5-trifluoromethylphenyl)-4-hydroxy-3-benzyl-3,4-dihydro-2H-1-benzopyran]
CD11b; female 129E^-/-, chow diet
  % CD11b (mean percent of the lesion staining positively for CD11b): 3.5±1.0 %
CD11b; male LDLr^-/-, Western-type diet
  % CD11b (mean percent of the lesion staining positively for CD11b): 3.5±2.5 %
C57E^-/-; F, 22 wks
  Sinus (% lesion): 38.8±3%
  Valve (%lesion): 39±2%
C57E^-/-; M, 16 wks
  Sinus (% lesion): 10.4±3 %
  Valve (%lesion): 7.8±2 %
MCP-1 ^-/- X ApoE^-/-; [2]
  Sinus (% lesion): 13.3±2%
  Valve (%lesion): 12.8±2%
MCP-1 ^-/- X ApoE^-/-; [3]
  Sinus (% lesion): 9.8±1%
  Valve (%lesion): 9.7±1%
MCP-1 ^-/- X ApoE^-/-; [4]
  Sinus (% lesion): 41.4±5%
  Valve (%lesion): 54.2±7%
MCP-1 ^-/- X ApoE^-/-; [5]
  Sinus (% lesion): 43.1±5%
  Valve (%lesion): 50.0±4%
[1]; 129E^-/-, F, 15 wks, 30 mg/kg orally 35 days, chow diet
  Body wt(gm): 26±2 gm
[1]; 129E^-/-, F, 15 wks, 50 mg/kg orally 35 days, chow diet
  Body wt(gm): 25±2 gm
[1]; 129E^-/-, F, 15 wks, 100 mg/kg orally 35 days, chow diet
  Body wt(gm): 25±1 gm
[1]; 129E^-/-, F, 20 wks, 30 mg/kg orally 35 days, chow diet
  Body wt(gm): 29±1 gm
[1]; 129E^-/-, F, 24 wks, 100 mg/kg orally 35 days, chow diet
  Body wt(gm): 31±1 gm
[1]; C57E^-/-, F, 22 wks, 100 mg/kg orally 35 days, chow diet
  Body wt(gm): 30 gm
[1]; C57E^-/-, M, 16 wks, 100 mg/kg orally 35 days, chow diet
  Body wt(gm): 29±1 gm
[1]; LDLr^-/-, M, 18 wks, 30 mg/kg orally 35 days, Western diet
  Body wt(gm): 31±2 gm
[1]; MCP-1 ^-/- X ApoE^-/-, M, 15 wks, 30 mg/kg orally 35 days
  Body wt(gm): 29±1 gm
[1]; MCP-1 ^-/- X ApoE^-/-, M, 15 wks, 100 mg/kg orally 35 days
  Body wt(gm): 29±1 gm
[1]; MCP-1 ^-/- X ApoE^-/-, M, 30 wks, 30 mg/kg orally 35 days
  Body wt(gm): 31±1 gm
[1]; MCP-1 ^-/- X ApoE^-/-, M, 30 wks, 100 mg/kg orally 35 days
  Body wt(gm): 26±1 gm
129E^-/-; [2]
  Sinus (% lesion): 19.6±2%
  Valve (%lesion): 21.6±2%
129E^-/-; [6]
  Sinus (% lesion): 14.7±2 %
  Valve (%lesion): 16.3±2 %
129E^-/-; [3]
  Sinus (% lesion): 7.9±1 %
  Valve (%lesion): 8.0±2 %
129E^-/-; [7]
  Sinus (% lesion): 24.4±3%
  Valve (%lesion): 25.9±3 %
129E^-/-; [8]
  Sinus (% lesion): 30.0±1%
  Valve (%lesion): 34.0±1%
129E^-/-; female 129E^-/-, 30 mg/kg/d orally for 35 days, mean ± SD, N=8/group
  Lesion size: 10650±12133
LDLr^-/-; [9]
  Sinus (% lesion): 5.6±2 %
  Valve (%lesion): 6.5±3 %
LDLr^-/-; male LDLr^-/-, Western-type diet, 30 mg/kg/d orally for 35 days, mean ± SD, N=8/group
  Lesion size: 19955±7278

Reference: patent EP1270000A2, “Benzoic acid substituted benzopyrans for the treatment of atherosclerosis” (Pfizer Products Inc., priority 2001, dated 2003)
